Measurements reported in PubChem BioAssay (NCI).
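Cells were grown in 96-well plates and exposed to each compound for 48 hours at five concentrations; endpoints were interpolated linearly between bracketing concentrations, or set to the highest concentration if not reached. GI50: concentration for 50% inhibition of growth. TGI: total growth inhibition.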

Columns and labels:
Test in all cases: growth of human tumour cells (NCI), 48 h
786-0 renal = tested on: 786-0 renal
A498 renal = tested on: A498 renal
A549 NSCLC = tested on: A549 NSCLC
ACHN renal = tested on: ACHN renal
BT-549 breast = tested on: BT-549 breast
CAKI-1 renal = tested on: CAKI-1 renal
CCRF-CEM leukemia = tested on: CCRF-CEM leukemia
COLO 205 colon = tested on: COLO 205 colon
DU-145 prostate = tested on: DU-145 prostate
EKVX NSCLC = tested on: EKVX NSCLC
HCC-2998 colon = tested on: HCC-2998 colon
HCT-116 colon = tested on: HCT-116 colon
HCT-15 colon = tested on: HCT-15 colon
HL-60(TB) leukemia = tested on: HL-60(TB) leukemia
HOP-62 NSCLC = tested on: HOP-62 NSCLC
HOP-92 NSCLC = tested on: HOP-92 NSCLC
HS 578T breast = tested on: HS 578T breast
HT29 colon = tested on: HT29 colon
IGROV1 ovarian = tested on: IGROV1 ovarian
K-562 leukemia = tested on: K-562 leukemia
KM12 colon = tested on: KM12 colon
LOX IMVI melanoma = tested on: LOX IMVI melanoma
M14 melanoma = tested on: M14 melanoma
MALME-3M melanoma = tested on: MALME-3M melanoma
MCF7 breast = tested on: MCF7 breast
MDA-MB-231 breast = tested on: MDA-MB-231 breast
MDA-MB-435 = tested on: MDA-MB-435
MOLT-4 leukemia = tested on: MOLT-4 leukemia
NCI-H226 lung = tested on: NCI-H226 lung
NCI-H23 lung = tested on: NCI-H23 lung
NCI-H460 lung = tested on: NCI-H460 lung
NCI-H522 lung = tested on: NCI-H522 lung
NCI/ADR-RES ovarian = tested on: NCI/ADR-RES ovarian
OVCAR-3 ovarian = tested on: OVCAR-3 ovarian
OVCAR-4 ovarian = tested on: OVCAR-4 ovarian
OVCAR-5 ovarian = tested on: OVCAR-5 ovarian
OVCAR-8 ovarian = tested on: OVCAR-8 ovarian
PC-3 prostate = tested on: PC-3 prostate
RPMI-8226 leukemia = tested on: RPMI-8226 leukemia
SF-268 CNS = tested on: SF-268 CNS
SF-295 CNS = tested on: SF-295 CNS
SF-539 CNS = tested on: SF-539 CNS
SK-MEL-2 melanoma = tested on: SK-MEL-2 melanoma
SK-MEL-28 melanoma = tested on: SK-MEL-28 melanoma
SK-MEL-5 melanoma = tested on: SK-MEL-5 melanoma
SK-OV-3 ovarian = tested on: SK-OV-3 ovarian
SN12C renal = tested on: SN12C renal
SNB-19 CNS = tested on: SNB-19 CNS
SNB-75 CNS = tested on: SNB-75 CNS
SR leukemia = tested on: SR leukemia
SW-620 colon = tested on: SW-620 colon
T-47D breast = tested on: T-47D breast
TK-10 renal = tested on: TK-10 renal
U251 CNS = tested on: U251 CNS
UACC-257 melanoma = tested on: UACC-257 melanoma
UACC-62 melanoma = tested on: UACC-62 melanoma
UO-31 renal = tested on: UO-31 renal

O=C(/C=C/c1cccc(B(O)O)c1)c1cccc(B(O)O)c1
GI50 (786-0 renal): 1.75 µM
TGI (786-0 renal): 3.71 µM
GI50 (A498 renal): 1.52 µM
TGI (A498 renal): 3.5 µM
GI50 (A549 NSCLC): 2.12 µM
TGI (A549 NSCLC): 5.81 µM
GI50 (ACHN renal): 2.14 µM
TGI (ACHN renal): 4.33 µM
GI50 (BT-549 breast): 1.06 µM
TGI (BT-549 breast): 2.37 µM
GI50 (CAKI-1 renal): 2.85 µM
TGI (CAKI-1 renal): 12.6 µM
GI50 (CCRF-CEM leukemia): 0.445 µM
TGI (CCRF-CEM leukemia): 2.67 µM
GI50 (COLO 205 colon): 1.76 µM
TGI (COLO 205 colon): 3.45 µM
GI50 (DU-145 prostate): 1.83 µM
TGI (DU-145 prostate): 3.79 µM
GI50 (EKVX NSCLC): 6.38 µM
TGI (EKVX NSCLC): 23.1 µM
GI50 (HCC-2998 colon): 1.8 µM
TGI (HCC-2998 colon): 3.2 µM
GI50 (HCT-116 colon): 0.376 µM
TGI (HCT-116 colon): 1.57 µM
GI50 (HCT-15 colon): 1.55 µM
TGI (HCT-15 colon): 4.3 µM
GI50 (HL-60(TB) leukemia): 2.17 µM
TGI (HL-60(TB) leukemia): 6.33 µM
GI50 (HOP-62 NSCLC): 1.59 µM
TGI (HOP-62 NSCLC): 3.26 µM
GI50 (HOP-92 NSCLC): 1.53 µM
TGI (HOP-92 NSCLC): 3.59 µM
GI50 (HS 578T breast): 3.89 µM
TGI (HS 578T breast): 54.8 µM
GI50 (HT29 colon): 1.68 µM
TGI (HT29 colon): 3.17 µM
GI50 (IGROV1 ovarian): 2.52 µM
TGI (IGROV1 ovarian): 6.65 µM
GI50 (K-562 leukemia): 2.13 µM
TGI (K-562 leukemia): 9 µM
GI50 (KM12 colon): 1.37 µM
TGI (KM12 colon): 2.79 µM
GI50 (LOX IMVI melanoma): 0.76 µM
TGI (LOX IMVI melanoma): 2.03 µM
GI50 (M14 melanoma): 1.51 µM
TGI (M14 melanoma): 3.33 µM
GI50 (MALME-3M melanoma): 2.26 µM
TGI (MALME-3M melanoma): 6.01 µM
GI50 (MCF7 breast): 0.742 µM
TGI (MCF7 breast): 7.58 µM
GI50 (MDA-MB-231 breast): 1.58 µM
TGI (MDA-MB-231 breast): 3.17 µM
GI50 (MDA-MB-435): 1.9 µM
TGI (MDA-MB-435): 4.88 µM
GI50 (MOLT-4 leukemia): 2.1 µM
TGI (MOLT-4 leukemia): 5.96 µM
GI50 (NCI-H226 lung): 1.91 µM
TGI (NCI-H226 lung): 4.14 µM
GI50 (NCI-H23 lung): 1.81 µM
TGI (NCI-H23 lung): 4.44 µM
GI50 (NCI-H460 lung): 1.99 µM
TGI (NCI-H460 lung): 4.53 µM
GI50 (NCI-H522 lung): 1.51 µM
TGI (NCI-H522 lung): 3.02 µM
GI50 (NCI/ADR-RES ovarian): 1.99 µM
TGI (NCI/ADR-RES ovarian): 5.47 µM
GI50 (OVCAR-3 ovarian): 0.828 µM
TGI (OVCAR-3 ovarian): 2.38 µM
GI50 (OVCAR-4 ovarian): 3.27 µM
TGI (OVCAR-4 ovarian): 22.2 µM
GI50 (OVCAR-5 ovarian): 2.17 µM
TGI (OVCAR-5 ovarian): 4.87 µM
GI50 (OVCAR-8 ovarian): 2.19 µM
TGI (OVCAR-8 ovarian): 7.23 µM
GI50 (PC-3 prostate): 2.53 µM
TGI (PC-3 prostate): 11.2 µM
GI50 (RPMI-8226 leukemia): 2.25 µM
TGI (RPMI-8226 leukemia): 5.68 µM
GI50 (SF-268 CNS): 1.8 µM
TGI (SF-268 CNS): 5.56 µM
GI50 (SF-295 CNS): 3.9 µM
TGI (SF-295 CNS): 15.6 µM
GI50 (SF-539 CNS): 1.84 µM
TGI (SF-539 CNS): 3.73 µM
GI50 (SK-MEL-2 melanoma): 2.26 µM
TGI (SK-MEL-2 melanoma): 5.2 µM
GI50 (SK-MEL-28 melanoma): 1.72 µM
TGI (SK-MEL-28 melanoma): 3.46 µM
GI50 (SK-MEL-5 melanoma): 1.85 µM
TGI (SK-MEL-5 melanoma): 3.83 µM
GI50 (SK-OV-3 ovarian): 3.16 µM
TGI (SK-OV-3 ovarian): 11.6 µM
GI50 (SN12C renal): 1.7 µM
TGI (SN12C renal): 3.61 µM
GI50 (SNB-19 CNS): 2.13 µM
TGI (SNB-19 CNS): 10.4 µM
GI50 (SNB-75 CNS): 3.61 µM
TGI (SNB-75 CNS): 16.3 µM
GI50 (SR leukemia): 0.314 µM
TGI (SR leukemia): 1.65 µM
GI50 (SW-620 colon): 0.765 µM
TGI (SW-620 colon): 2.31 µM
GI50 (T-47D breast): 2.31 µM
TGI (T-47D breast): 9.58 µM
GI50 (TK-10 renal): 2.57 µM
TGI (TK-10 renal): 6.47 µM
GI50 (U251 CNS): 0.406 µM
TGI (U251 CNS): 1.52 µM
GI50 (UACC-257 melanoma): 1.38 µM
TGI (UACC-257 melanoma): 3.31 µM
GI50 (UACC-62 melanoma): 1.66 µM
TGI (UACC-62 melanoma): 4.31 µM
GI50 (UO-31 renal): 1.71 µM
TGI (UO-31 renal): 3.36 µM
